Experimental data: patent publication US20230103631A1, “PEPTIDES AS SELECTIVE GIP RECEPTOR AGONISTS” (Sanofi, priority 2020, published 2023)
*1 amine or outer side, *2 acyl side, *3 side chain or, on linkers, in order; H or OH if unused. Where a SMILES comes first, the peptide text is derived from it. Side-chain parts run from the residue outwards. [ ]: non-standard residue; d: D form. The star is where a group is joined. C20 diacid = O=C(O)CCCCCCCCCCCCCCCCCCC(=O)*; C18 diacid = O=C(O)CCCCCCCCCCCCCCCCC(=O)*; γGlu = O=C(O)[C@H](CCC(=O)[*:2])N[*:1]; AEEA = NCCOCCOCC(=O)O; Aib = CC(C)(N)C(=O)O

Test: Dynamic light scattering (DLS) for the assessment of physical stability
Format: physicochemical
Conditions: DLS buffer system A
Description: A monochromatic and coherent light beam (laser) is used to illuminate the liquid sample. Dynamic Light Scattering (DLS) measures light scattered from particles (1 nm≤radius≤1 μm) that undergo Brownian motion. This motion is induced by collisions between the particles and solvent molecules, that themselves are moving due to their thermal energy. The diffusional motion of the particles results in temporal fluctuations of the scattered light (R. Pecora, Dynamic Light Scattering: Applications of Photon Correlation Spectroscopy, Plenum Press, 1985).
The scattered light intensity fluctuations are recorded and transformed into an autocorrelation function. By fitting the autocorrelation curve to an exponential function, the diffusion coefficient D of the particles in solution can be derived. The diffusion coefficient is then used to calculate the hydrodynamic radius Rh (or apparent Stokes radius) through the Stokes-Einstein equation assuming spherical particles. This calculation is defined in ISO 13321 and ISO 22412 (International Standard ISO13321 Methods for Determination of Particle Size Distribution Part 8: Photon Correlation Spectroscopy, International Organisation for Standardisation (ISO) 1996; International Standard ISO22412 Particle Size Analysis—Dynamic Light Scattering, International Organisation for Standardisation, 2008).
In case of polydisperse samples, the autocorrelation function is the sum of the exponential decays corresponding to each of the species. The temporal fluctuations of the scattered light can then be used to determine the size distribution profile of the particle fraction or family. The first order result is an intensity distribution of scattered light as a function of the particle size. The intensity distribution is naturally weighted according to the scattering intensity of each particle fraction or family. For biological materials or polymers, the particle scattering intensity is proportional to the square of the molecular weight. Thus, small amount of aggregates/agglomerates or presence or a larger particle species can dominate the intensity distribution. However, this distribution can be used as a sensitive detector for the presence of large material in the sample.
The DLS technique produces distributions with inherent peak broadening. The polydispersity index % Pd is a measure of the width of the particle size distribution and is calculated by standard methods described in ISO13321 and ISO22412 [International Standard ISO13321 Methods for Determination of Particle Size Distribution Part 8: Photon Correlation Spectroscopy, International Organisation for Standardisation (ISO) 1996; International Standard ISO22412 Particle Size Analysis—Dynamic Light Scattering, International Organisation for Standardisation (ISO) 2008].
Solutions from solid samples were prepared in buffer systems (see below) with a target concentration of 300 μM compound based on the previously determined % purity.
DLS buffer system A) 20 mM phosphate buffer pH 7.4
DLS buffer system B) 8 mM phosphate buffer pH 7.4, 14 mg/ml propylene glycol, 5.5 mg/ml phenol
DLS buffer system C) 100 mM phosphate buffer pH 7.4, 2.7 mg/ml m-cresol Solutions were filtered through 0.22 μm pore size and filled into sterilized glass containers under laminar flow conditions. For every peptide solution, the apparent hydrodynamic radius (Rh), the corresponding Scattering Intensity (I), and the Mass Contribution (M) were determined as an average over 3-6 replicates from the intensity distribution of the scattered light averaging only high-quality measurements. Relative standard deviations (RSD) for these parameters were calculated from the same number of replicates. […]

Row | SMILES | I and SD (Scattering Intensity) (0 weeks) [%] | M and SD (Mass Contribution) (0 weeks) [%] | apparent Rh and SD (0 weeks) [nm] | I and SD (Scattering Intensity) (4 weeks storage at 40° C.) [%] | M and SD (Mass Contribution) (4 weeks storage at 40° C.) [%] | apparent Rh and SD (4 weeks storage at 40° C.) [nm]
1 | CC[C@H](C)[C@H](NC(=O)[C@H](Cc1ccccc1)NC(=O)[C@H](CCC(=O)O)NC(=O)[C@H](CCC(=O)O)NC(=O)[C@H](CCC(N)=O)NC(=O)[C@H](Cc1c[nH]cn1)NC(=O)[C@@H](NC(=O)[C@H](CCCNC(=N)N)NC(=O)[C@H](CC(=O)O)NC(=O)[C@H](CCCCNC(=O)COCCOCCNC(=O)COCCOCCNC(=O)CC[C@H](NC(=O)CCCCCCCCCCCCCCCCCCC(=O)O)C(=O)O)NC(=O)C(C)(C)NC(=O)[C@@H](NC(=O)[C@H](CO)NC(=O)[C@H](CC(C)C)NC(=O)[C@H](CC(=O)O)NC(=O)[C@H](CO)NC(=O)[C@@H](NC(=O)[C@H](Cc1ccccc1)NC(=O)[C@@H](NC(=O)CNC(=O)[C@H](CCC(=O)O)NC(=O)C(C)(C)NC(=O)[C@@H](N)Cc1ccc(O)cc1)[C@@H](C)O)[C@@H](C)CC)[C@@H](C)CC)[C@@H](C)CC)C(=O)N[C@@H](CCC(=O)O)C(=O)N[C@@H](Cc1c[nH]c2ccccc12)C(=O)N[C@@H](CC(C)C)C(=O)N[C@@H](CC(C)C)C(=O)N[C@@H](C)C(=O)N[C@@H](CCC(N)=O)C(=O)NCC(=O)N1CCC[C@H]1C(=O)N[C@@H](CO)C(=O)N[C@@H](CO)C(=O)NCC(=O)N[C@@H](C)C(=O)N1CCC[C@H]1C(=O)N1CCC[C@H]1C(=O)N1CCC[C@H]1C(=O)N[C@@H](CO)C(N)=O [SEQ ID NO: 10, H2N-Y-Aib-E-G-T-F-I-S-D-I-S-I-Aib-K[{AEEA}2-gGlu-C20OH]-DRIHQEEFIEWILAQGPSSGAPPPS-NH2] (H-Y[Aib]EGTFISDLSI[Aib]K([AEEA-AEEA-γGlu-C20 diacid])DRIHQEEFIEWLLAQGPSSGAPPPS-NH2) | 60 ± 3 | 100 ± 0 | 1.97 ± 0.03 | 75 ± 3 | 100 ± 0 | 1.91 ± 0.04
2 | CC[C@H](C)[C@H](NC(=O)[C@H](Cc1ccccc1)NC(=O)[C@H](CCC(=O)O)NC(=O)[C@H](CCC(=O)O)NC(=O)[C@H](CCC(N)=O)NC(=O)[C@H](Cc1c[nH]cn1)NC(=O)[C@@H](NC(=O)[C@H](CCCNC(=N)N)NC(=O)[C@H](CC(=O)O)NC(=O)[C@H](CCCCNC(=O)COCCOCCNC(=O)COCCOCCNC(=O)CC[C@H](NC(=O)CCCCCCCCCCCCCCCCC(=O)O)C(=O)O)NC(=O)C(C)(C)NC(=O)[C@@H](NC(=O)[C@H](CO)NC(=O)[C@H](CC(C)C)NC(=O)[C@H](CC(=O)O)NC(=O)[C@H](CO)NC(=O)[C@@H](NC(=O)[C@H](Cc1ccccc1)NC(=O)[C@@H](NC(=O)CNC(=O)[C@H](CCC(=O)O)NC(=O)C(C)(C)NC(=O)[C@@H](N)Cc1ccc(O)cc1)[C@@H](C)O)[C@@H](C)CC)[C@@H](C)CC)[C@@H](C)CC)C(=O)N[C@@H](CCC(=O)O)C(=O)N[C@@H](Cc1c[nH]c2ccccc12)C(=O)N[C@@H](CC(C)C)C(=O)N[C@@H](CC(C)C)C(=O)N[C@@H](C)C(=O)N[C@@H](CCC(N)=O)C(=O)NCC(=O)N1CCC[C@H]1C(=O)N[C@@H](CO)C(=O)N[C@@H](CO)C(=O)NCC(=O)N[C@@H](C)C(=O)N1CCC[C@H]1C(=O)N1CCC[C@H]1C(=O)N1CCC[C@H]1C(=O)N[C@@H](CO)C(=O)O [SEQ ID NO: 11, H2N-Y-Aib-E-G-T-F-I-S-D-I-S-I-Aib-K[{AEEA}2-gGlu-C18OH]-DRIHQEEFIEWILAQGPSSGAPPPS-OH] (H-Y[Aib]EGTFISDLSI[Aib]K([AEEA-AEEA-γGlu-C18 diacid])DRIHQEEFIEWLLAQGPSSGAPPPS-OH) | 96 ± 1 | 100 ± 0 | 1.82 ± 0.04 | 85 ± 2 | 100 ± 0 | 1.83 ± 0.05
3 | CC[C@H](C)[C@H](NC(=O)[C@H](CCCNC(=N)N)NC(=O)[C@H](CC(=O)O)NC(=O)[C@H](CCCCNC(=O)COCCOCCNC(=O)COCCOCCNC(=O)CC[C@H](NC(=O)CCCCCCCCCCCCCCCCCCC(=O)O)C(=O)O)NC(=O)C(C)(C)NC(=O)[C@@H](NC(=O)[C@H](CO)NC(=O)[C@H](CC(C)C)NC(=O)[C@H](CC(=O)O)NC(=O)[C@H](CO)NC(=O)[C@@H](NC(=O)[C@H](Cc1ccccc1)NC(=O)[C@@H](NC(=O)CNC(=O)[C@H](CCC(=O)O)NC(=O)C(C)(C)NC(=O)[C@@H](N)Cc1ccc(O)cc1)[C@@H](C)O)[C@@H](C)CC)[C@@H](C)CC)C(=O)N[C@@H](Cc1c[nH]cn1)C(=O)N[C@@H](CCC(N)=O)C(=O)NC(C)(C)C(=O)N[C@@H](CCC(=O)O)C(=O)N[C@@H](Cc1ccccc1)C(=O)N[C@H](C(=O)N[C@@H](CCC(=O)O)C(=O)N[C@@H](Cc1c[nH]c2ccccc12)C(=O)N[C@@H](CC(C)C)C(=O)N[C@@H](CC(C)C)C(=O)N[C@@H](C)C(=O)N[C@@H](CCC(N)=O)C(=O)NCC(=O)N1CCC[C@H]1C(=O)N[C@@H](CO)C(=O)N[C@@H](CO)C(=O)NCC(=O)N[C@@H](C)C(=O)N1CCC[C@H]1C(=O)N1CCC[C@H]1C(=O)N1CCC[C@H]1C(=O)N[C@@H](CO)C(N)=O)[C@@H](C)CC [SEQ ID NO: 7, H2N-Y-Aib-E-G-T-F-I-S-D-I-S-I-Aib-K[{AEEA}2-gGlu-C20OH]-D-R-I-H-Q-Aib-E-F-I-E-W-I-L-A-Q-G-P-S-S-G-A-P-P-P-S-NH2] (H-Y[Aib]EGTFISDLSI[Aib]K([AEEA-AEEA-γGlu-C20 diacid])DRIHQ[Aib]EFIEWLLAQGPSSGAPPPS-NH2) | 85 ± 2 | 100 ± 0 | 2.06 ± 0.03 | 73 ± 4 | 100 ± 0 | 2.04 ± 0.02
